The NIST ThermoML archive (doi:10.1007/s10765-005-8102-9)
Numbers after ± are expanded uncertainties.

Tests used:
[1] = refractive index (Na D-line) (dimensionless); xn = mol fraction of the nth substance listed; conditions: 303.15 K, 101 kPa, Liquid
[2] = xn = mol fraction of the nth substance listed; conditions: 303.15 K, 101 kPa, Liquid
[3] = 303.15 K; 101 kPa; Liquid
[4] = refractive index (Na D-line) (dimensionless); conditions: 303.15 K; 101.33 kPa; Liquid

SMILES: C[S+](C)[O-] [dimethyl sulfoxide] + CCCCCCCO
- refractive index ([1]; x1 = 1): 1.4751 ± 0.0007
- mass density ([2]; x1 = 1): 1094.9 ± 1.3 kg/m3
- speed of sound ([2]; x1 = 1): 1490.9 ± 7 m/s

SMILES: CCCCO [butan-1-ol]
- mass density [3]: 802 ± 0.8 kg/m3
- speed of sound [3]: 1231 ± 4.7 m/s
- refractive index [4]: 1.3946 ± 0.0007

SMILES: CCCCCCCO [heptan-1-ol]
- mass density [3]: 815.7 ± 0.9 kg/m3
- speed of sound [3]: 1306 ± 6.6 m/s
- refractive index [4]: 1.4201 ± 0.0007

SMILES: C[S+](C)[O-] [dimethyl sulfoxide] + CCCCCCO
- refractive index ([1]; x1 = 1): 1.4751 ± 0.0007
- mass density ([2]; x1 = 1): 1094.9 ± 2.4 kg/m3
- speed of sound ([2]; x1 = 1): 1490.9 ± 7 m/s

SMILES: C[S+](C)[O-] [dimethyl sulfoxide] + CCCCO
- refractive index ([1]; x1 = 0.1034): 1.4001 ± 0.0007
- refractive index ([1]; x1 = 0.2122): 1.4064 ± 0.0007
- refractive index ([1]; x1 = 0.3156): 1.4127 ± 0.0007
- refractive index ([1]; x1 = 0.4009): 1.4185 ± 0.0007
- refractive index ([1]; x1 = 0.5073): 1.4263 ± 0.0007
- refractive index ([1]; x1 = 0.6002): 1.4335 ± 0.0007
- refractive index ([1]; x1 = 0.6957): 1.4417 ± 0.0007
- refractive index ([1]; x1 = 0.8112): 1.4527 ± 0.0007
- refractive index ([1]; x1 = 0.9051): 1.4633 ± 0.0007
- refractive index ([1]; x1 = 1): 1.4751 ± 0.0007
- mass density ([2]; x1 = 0.1034): 825.7 ± 0.8 kg/m3
- speed of sound ([2]; x1 = 0.1034): 1247.5 ± 4.7 m/s
- mass density ([2]; x1 = 0.2122): 851.8 ± 0.9 kg/m3
- speed of sound ([2]; x1 = 0.2122): 1267.5 ± 4.8 m/s
- mass density ([2]; x1 = 0.3156): 877.9 ± 0.9 kg/m3
- speed of sound ([2]; x1 = 0.3156): 1288 ± 4.8 m/s
- mass density ([2]; x1 = 0.4009): 900.5 ± 1 kg/m3
- speed of sound ([2]; x1 = 0.4009): 1305.5 ± 4.8 m/s
- mass density ([2]; x1 = 0.5073): 930.1 ± 1 kg/m3
- speed of sound ([2]; x1 = 0.5073): 1327.3 ± 4.8 m/s
- mass density ([2]; x1 = 0.6002): 957.2 ± 1 kg/m3
- speed of sound ([2]; x1 = 0.6002): 1347.5 ± 4.8 m/s
- mass density ([2]; x1 = 0.6957): 986.6 ± 1.1 kg/m3
- speed of sound ([2]; x1 = 0.6957): 1371 ± 4.9 m/s
- mass density ([2]; x1 = 0.8112): 1024.6 ± 1.2 kg/m3
- speed of sound ([2]; x1 = 0.8112): 1406.6 ± 4.9 m/s
- mass density ([2]; x1 = 0.9051): 1058.4 ± 1.2 kg/m3
- speed of sound ([2]; x1 = 0.9051): 1443 ± 5 m/s
- mass density ([2]; x1 = 1): 1094.9 ± 1.3 kg/m3
- speed of sound ([2]; x1 = 1): 1490.9 ± 5 m/s

SMILES: CCCCCCO [hexan-1-ol]
- mass density [3]: 811.8 ± 1.8 kg/m3
- speed of sound [3]: 1282 ± 6.7 m/s
- refractive index [4]: 1.4134 ± 0.0008

SMILES: C[S+](C)[O-] [dimethyl sulfoxide]
- mass density [3]: 1094.9 ± 1.3 kg/m3
- speed of sound [3]: 1490.9 ± 5 m/s
- refractive index [4]: 1.4751 ± 0.0007

SMILES: CCCCCCCO [heptan-1-ol] + C[S+](C)[O-]
- refractive index ([1]; x2 = 0): 1.4201 ± 0.0007
- refractive index ([1]; x2 = 0.1096): 1.4209 ± 0.0007
- refractive index ([1]; x2 = 0.2535): 1.4242 ± 0.0007
- refractive index ([1]; x2 = 0.3668): 1.4277 ± 0.0007
- refractive index ([1]; x2 = 0.474): 1.4312 ± 0.0007
- refractive index ([1]; x2 = 0.5788): 1.4355 ± 0.0007
- refractive index ([1]; x2 = 0.6708): 1.4402 ± 0.0007
- refractive index ([1]; x2 = 0.7598): 1.4458 ± 0.0007
- refractive index ([1]; x2 = 0.8376): 1.4528 ± 0.0007
- refractive index ([1]; x2 = 0.9031): 1.4615 ± 0.0007
- mass density ([2]; x2 = 0): 815.7 ± 0.9 kg/m3
- speed of sound ([2]; x2 = 0): 1306 ± 6.6 m/s
- mass density ([2]; x2 = 0.1096): 825.7 ± 0.9 kg/m3
- speed of sound ([2]; x2 = 0.1096): 1312.3 ± 6.6 m/s
- mass density ([2]; x2 = 0.2535): 846 ± 0.9 kg/m3
- speed of sound ([2]; x2 = 0.2535): 1319.5 ± 6.6 m/s
- mass density ([2]; x2 = 0.3668): 866.8 ± 1 kg/m3
- speed of sound ([2]; x2 = 0.3668): 1329.9 ± 6.6 m/s
- mass density ([2]; x2 = 0.474): 889.4 ± 1 kg/m3
- speed of sound ([2]; x2 = 0.474): 1338 ± 6.6 m/s
- mass density ([2]; x2 = 0.5788): 915.8 ± 1 kg/m3
- speed of sound ([2]; x2 = 0.5788): 1351.5 ± 6.7 m/s
- mass density ([2]; x2 = 0.6708): 943.2 ± 1.1 kg/m3
- speed of sound ([2]; x2 = 0.6708): 1369 ± 6.7 m/s
- mass density ([2]; x2 = 0.7598): 973.2 ± 1.1 kg/m3
- speed of sound ([2]; x2 = 0.7598): 1384.6 ± 6.7 m/s
- mass density ([2]; x2 = 0.8376): 1003.5 ± 1.2 kg/m3
- speed of sound ([2]; x2 = 0.8376): 1409.3 ± 6.8 m/s
- mass density ([2]; x2 = 0.9031): 1034.5 ± 1.2 kg/m3
- speed of sound ([2]; x2 = 0.9031): 1428.6 ± 6.8 m/s

SMILES: CCCCCCO [hexan-1-ol] + C[S+](C)[O-]
- refractive index ([1]; x2 = 0): 1.4134 ± 0.0008
- refractive index ([1]; x2 = 0.1336): 1.4149 ± 0.0008
- refractive index ([1]; x2 = 0.2712): 1.4185 ± 0.0008
- refractive index ([1]; x2 = 0.3808): 1.4216 ± 0.0008
- refractive index ([1]; x2 = 0.4814): 1.4259 ± 0.0008
- refractive index ([1]; x2 = 0.5762): 1.4311 ± 0.0008
- refractive index ([1]; x2 = 0.666): 1.4372 ± 0.0007
- refractive index ([1]; x2 = 0.765): 1.4448 ± 0.0007
- refractive index ([1]; x2 = 0.848): 1.4535 ± 0.0007
- refractive index ([1]; x2 = 0.9246): 1.4629 ± 0.0007
- mass density ([2]; x2 = 0): 811.8 ± 1.8 kg/m3
- speed of sound ([2]; x2 = 0): 1282 ± 6.7 m/s
- mass density ([2]; x2 = 0.1336): 832.6 ± 1.8 kg/m3
- speed of sound ([2]; x2 = 0.1336): 1300.8 ± 6.7 m/s
- mass density ([2]; x2 = 0.2712): 857.6 ± 1.9 kg/m3
- speed of sound ([2]; x2 = 0.2712): 1311.6 ± 6.7 m/s
- mass density ([2]; x2 = 0.3808): 880.7 ± 1.9 kg/m3
- speed of sound ([2]; x2 = 0.3808): 1325.3 ± 6.7 m/s
- mass density ([2]; x2 = 0.4814): 904.6 ± 1.9 kg/m3
- speed of sound ([2]; x2 = 0.4814): 1336.5 ± 6.7 m/s
- mass density ([2]; x2 = 0.5762): 929.7 ± 2 kg/m3
- speed of sound ([2]; x2 = 0.5762): 1349.5 ± 6.7 m/s
- mass density ([2]; x2 = 0.666): 956.3 ± 2 kg/m3
- speed of sound ([2]; x2 = 0.666): 1368 ± 6.8 m/s
- mass density ([2]; x2 = 0.765): 989.2 ± 2.1 kg/m3
- speed of sound ([2]; x2 = 0.765): 1395 ± 6.8 m/s
- mass density ([2]; x2 = 0.848): 1021.1 ± 2.2 kg/m3
- speed of sound ([2]; x2 = 0.848): 1420.5 ± 6.8 m/s
- mass density ([2]; x2 = 0.9246): 1054.7 ± 2.3 kg/m3
- speed of sound ([2]; x2 = 0.9246): 1448.5 ± 6.9 m/s

SMILES: CCCCO [butan-1-ol] + C[S+](C)[O-]
- refractive index ([1]; x2 = 0): 1.3946 ± 0.0007
- mass density ([2]; x2 = 0): 802 ± 0.8 kg/m3
- speed of sound ([2]; x2 = 0): 1231 ± 4.7 m/s
